US20250152605A1, “METHOD AND DRUG FOR TREATING NEURONAL CEROID LIPOFUSCINOSIS” (priority 2021, published 2025)

Legend:
[1] = Drug concentration in mouse brain tissue (UPLC-MS/MS); assay type: in vivo; conditions: Cln3 KO mice
Protocol: In order to determine whether Compound G can pass through the blood-brain barrier and its drug concentration in the brain tissue of mice, the following experiment was performed: Compound G was dissolved in drinking water at a concentration of 1 mg/mL and fed to mice, and a solvent was added to the drinking water of control mice; mice treated with Compound G were removed at 8 different random time points, and after Avertin anesthesia, their hearts were perfused with 20 mL dPBS to rinse the blood in the mice; non-dosed mice were also perfused in the same manner as blank tissue; whole mouse brain tissue was removed, weighed, snap frozen in liquid nitrogen and ground using Mixer Mill (RETSCH MM400) with a shaking frequency of 26 beats/sec for 5 minutes; a small molecule with similar structural properties to Compound G was prepared in advance as an internal reference (denoted IS) and IS was dissolved in 80% aqueous methanol to 100 ng/ml. […]
After using dPBS to completely perfuse the systemic blood, the mice were euthanized and the brain tissues thereof were taken out. The drug concentrations of Compound G in the mouse brain tissues were measured.

Cln3 KO mice [2] = test: Morris water maze; assay type: in vivo, mouse; conditions: 7th day test
Protocol: To test the difference in learning and memory abilities of Cln3 KO mice and wild-type mice, and the effect of Compound G on learning and memory abilities of Cln3 KO mice, a Morris water maze was performed, with specific procedures as follows: the mice to be tested were kept in single cages for more than 1 week to adapt to the environment; the maze used in this study was a circular pool with a diameter of 120 cm and a depth of 40 cm; the pool wall is divided into four quadrants including northeast (NE), northwest (NW), southwest (SW) and southeast (SE) with circles, squares, triangles and crosses respectively. The platform was placed at a fixed position in the SW quadrant with a diameter of 11 cm and a height of 18 cm; milky white water containing titanium dioxide was added to the pool, the amount of added water being just short of the platform is suitable; the water temperature was adjusted to about 22° C.; the mouse was gently put into the water from the designated position shown in Table 5, and the movement of the mouse within 60 seconds was recorded through the video equipment. If the mouse found the platform within 60 seconds, its time to find the platform was recorded; if the mouse could not find the platform within 60 seconds, it was guided to the platform and held for 15 seconds.
The mice were removed from the platform, wiped clean with a dry towel and returned to their cages. Each mouse was trained 4 times a day, with a 30-minute interval between each training, for a total of 6 days, and mice that cannot swim were excluded; on the Day 7, the platform in the water was taken out, and then the mice were gently put into the water from the NE direction, and the movement of the mouse within 60 seconds was recorded with a video equipment. The time it took for the mouse to find the platform for the first time and the time the mouse stayed in the SW quadrant were analyzed and counted using Noldus software. In addition, the experimenter manually counted the number of times the mouse crossed the location of the original platform within 60 seconds.
Starting from day 21 on which the Cln3 KO mice were weaned, treatment of Compound G was continuously provided. […]
First, the mice were trained in the water maze for 6 days, and the time it took for them to find the underwater platform was recorded. […] The time that the mice spent reaching the position of the original platform for the first time, the number of shuttles at the position of the original platform and the time stayed in the quadrant of the original platform were recorded, which characterized whether they have learned the position of the underwater platform through the first 6 days of training.

Cln3 KO mice [3] = test: Body weight, brain tissue mass and toxicity in Cln3 KO mice
Protocol: The control group was Cln3 KO mice whose drinking water contained an equal amount of solvent. Body weight changes were recorded during administration.
Starting from day 21 on which the mice were weaned, Compound G or the solvent was added to the drinking water of Cln3 KO mice, and the weight changes of the mice were recorded. […] When the mice reached six months of age, they were euthanized and the brain tissues were taken out and weighed.

With `C/C=C1\C(=O)C[C@H]2[C@@H]3CCC4=CC(=O)CC[C@]4(C)[C@H]3CC[C@]12C` [Compound G, (Z)-guggulsterone] as the molecule, how does the “average concentration in the mouse brain” value ([1]; 1 mg/mL in drinking water, different time points (n=8)) read?
Its value is 814.74±834.19 ng/g brain tissue.

What about the “penetration of the blood-brain barrier” value ([1]; drinking water) of the same molecule?
Its value is “could penetrate the blood-brain barrier”.

And the “movement speed of the mice in water” value (Cln3 KO mice [2])?
The value was “no significant effect”.

And the “number of times they shuttle at the position of the original platform” value (Cln3 KO mice [2])?
The value was “closer to that of the wild-type mice”.

What about the “time spent reaching the position of the original platform for the first time” value (Cln3 KO mice [2]) of the same molecule?
Its value is “effectively shorten”.

And the “time stayed in the quadrant of the original platform” value (Cln3 KO mice [2])?
Its value is “extended the time stayed in the quadrant of the original platform to a certain extent”.

And the “body weight of mice” value (Cln3 KO mice [3]; 2 or 6 months old, drinking water from day 21)?
Its value is “no significant effect”.

What about the “mass of the mice brain tissue” value (Cln3 KO mice [3]; 6 months of age) of the same molecule?
The value was “no significant effect”.
